Experiment: Two-way permeability study in Caco-2 cells
Type: in vitro ADME
Conditions: human; for efflux ratio at 120 min: pH 7.4; for Papp A→B at 120 min: pH 7.4, A-B direction; for Papp B→A at 120 min: pH 7.4, B-A direction
Procedure: The two-way permeability of the to-be-tested compound in Caco-2 cells was measured, and whether the to-be-tested compound was transported by efflux or not was tested.
The compound is dissolved in dimethyl sulfoxide (DMSO) or other suitable solvent to prepare a stock solution of the appropriate concentration.
A suitable internal standard (IS) is dissolved in acetonitrile (ACN) or other organic solvent to be used as a stop solution. The specific information will be described in the research report.
Nadolol, metoprolol, digoxin, estrone 3-sulfate potassium (E3S) and GF120918 were used as a hypotonic control compound, a hypertonic control compound, a P-glycoprotein (P-gp) substrate, a breast cancer resistance protein (BCRP) substrate, and an efflux transporter inhibitor in this study. Stock solutions of these compounds are prepared with DMSO and stored at ≤−30° C., and used within 6 months.
In this study, HBSS (Hanks Balanced Salt Solution) containing 10 mM HEPES (2-[4-(2-hydroxyethyl)-1-piperazine]ethanesulfonic acid) was used as a transport buffer (pH 7.40*0.05).
Caco-2 cells were cultured in an MEM medium (Minimum Essential Media) under the conditions of 37±1° C., 5% CO2 and saturated humidity. The cells were then seeded in a Corning Transwell-96 well plate at a density of 1×10^5 cells/cm^2, and then the cells were placed in a carbon dioxide incubator for culture for 21-28 days for transport experiments. The medium was changed once every 5-6 days during culture.
Compounds were administered at concentrations of 2, 10 and 100 μM and were administered in both directions (A-B and B-A directions) with or without 10 μM GF120918, and there are three parallels for each administration concentration. Digoxin and E3S were tested at the concentration of 10 μM and 5 μM, respectively, and administered bidirectionally with or without 10 μM GF120918. The test concentrations of nadolol and metoprolol were 2 μM, and nadolol and metoprolol were administered unidirectionally (the A-B direction) without 10 μM GF120918. The three control compounds were also made in three parallels.
The administration solution, receiving solution and transport buffer were pre-incubated for 30 minutes at 37° C. The cell layer was rinsed twice with the transport buffer. The administration solution and the receiving solution were separately added to the corresponding cell plate wells (75 μL and 250 μL, respectively, for each of the top and base end wells). After sampling, the cell plates were incubated for 120 minutes in an incubator at 37±1° C., 5% CO2 and saturated humidity.
After all the compounds were subjected to vortex oscillation, the compounds after vortex oscillation were centrifuged at 3220×g, and 20° C. for 20 minutes, the appropriate volume of the supernatant was transferred to a sample analysis plate, and after the plate was sealed, the compounds were stored at 2-8° C. if the compounds were not immediately analyzed. The analysis was carried out by the method of LC/MS/MS, and the specific compound treatment method is shown in the research report.
The Lucifer Yellow Rejection Assay was used to test the integrity of Caco-2 cells. Six cell wells were randomly selected from each cell plate, and 100 μM Lucifer Yellow was added respectively. The Lucifer Yellow Rejection Assay and the transport experiment were performed simultaneously. After 120 minutes of incubation, a Lucifer Yellow sample was taken and the relative fluorescence unit (RFU) of the Lucifer Yellow in the sample was detected at a 425/528 nm (excitation/emission) spectrum.
The concentrations of the to-be-tested compound and the control compounds nadolol, metoprolol, digoxin and E3S in the samples were determined by liquid chromatography-tandem mass spectrometry (LC/MS/MS). The retention time of the analyte and internal standard, chromatogram acquisition and chromatogram integration were processed by using the software Analyst (AB Sciex, Framingham, Mass., USA).

Row | efflux ratio at 120 min | Papp A→B at 120 min | Papp B→A at 120 min | SMILES
1 | 32.5 | 0.27 ×10⁻⁶ cm/s | 8.68 ×10⁻⁶ cm/s | COc1ccc2c(c1OCc1ccccc1)C[C@@H](C(=O)O)N(C(=O)[C@@H](OC1CCCC1)c1ccccc1)C2 [Compound 37]
2 | – | 0.11 ×10⁻⁶ cm/s | 6.4 ×10⁻⁶ cm/s | COc1ccc2c(c1OCc1ccccc1)C[C@@H](C(=O)O)N(C(=O)C(c1ccccc1)c1ccccc1)C2 [EMA-401, reference compound]
3 | 26.3 | 0.67 ×10⁻⁶ cm/s | 17.7 ×10⁻⁶ cm/s | COc1ccc2c(c1OCc1ccccc1)C[C@@H](C(=O)O)N(C(=O)[C@@H](OC1(C)CCCC1)c1ccccc1)C2 [Compound 57]
4 | 13.1 | 0.48 ×10⁻⁶ cm/s | 6.24 ×10⁻⁶ cm/s | O=C(O)[C@@H]1Cc2c(ccc(Cl)c2OCc2ccccc2)CN1C(=O)[C@@H](OC1CCCC1)c1ccccc1 [Compound 107]

Source: US11021445B2, “Carboxylic acid derivative as AT2R receptor antagonist” (SHANDONG DANHONG PHARMACEUTICAL CO., LTD., priority 2017, dated 2021)
